Laboratory results reported in US8455665B2, “3-phenoxymethylpyrrolidine compounds” (Theravance, Inc., priority 2009, dated 2013).

What was measured:
Set-up in all cases: expressed in transfected cells; host or cells: HEK-293
SERT [1] = target: T1, SERT (Homo sapiens, UniProt P31645); assay: hSERT membrane radioligand binding assay (3H-citalopram); details: hSERT membranes (HEK-293), 1.0 nM 3H-citalopram; for Ki: read-out: SERT pKi (converted)
Protocol: (§1) Membrane radioligand binding assays were used to measure inhibition of labeled ligand (^3H-citalopram or ^3H-nisoxetine or ^3H-WIN35428) binding to membranes prepared from cells expressing the respective human recombinant transporter (hSERT or hNET or hDAT) in order to determine the pKi values of test compounds at the transporters.
(§2) Recombinant human embryonic kidney (HEK-293) derived cell lines stably transfected with hSERT or hNET, respectively, were grown in DMEM medium supplemented with 10% dialyzed FBS (for hSERT) or FBS (for hNET), 100 μg/ml penicillin, 100 μg/ml streptomycin, 2 mM L-glutamine and 250 μg/ml of the aminoglycoside antibiotic G418, in a 5% CO2 humidified incubator at 37° C. When cultures reached 80% confluence, the cells were washed thoroughly in PBS (without Ca^2+ and Mg^2+) and lifted with 5 mM EDTA in PBS. Cells were pelleted by centrifugation, resuspended in lysis buffer (10 mM Tris-HCl, pH7.5 containing 1 mM EDTA), homogenized, pelleted by centrifugation, then resuspended in 50 mM Tris-HCl, pH 7.5 and 10% sucrose at 4° C. Protein concentration of the membrane suspension was determined using a Bio-Rad Bradford Protein Assay kit. Membranes were snap frozen and stored at −80° C. Chinese hamster ovary membranes expressing hDAT (CHO-DAT) were purchased from PerkinElmer and stored at −80° C.
(§3) Binding assays were performed in a 96-well assay plate in a total volume of 200 μl assay buffer (50 mM Tris-HCl, 120 mM NaCl, 5 mM KCl, pH 7.4) with 0.5, 1, and 3 μg membrane protein, for SERT, NET and DAT, respectively.
(§4) Stock solutions (10 mM in DMSO) of test compound were prepared and serial dilutions made using Dilution Buffer (50 mM Tris-HCl, 120 mM NaCl, 5 mM KCl, pH 7.4, 0.1% BSA, 400 μM ascorbic acid). Non-specific radioligand binding was determined in the presence of 1 μM duloxetine, 1 μM desipramine or 10 μM GBR12909 (each in Dilution Buffer) for the hSERT, hNET or hDAT assays, respectively.
(§5) Following a 60 minute incubation at 22° C. (or a period sufficient to reach equilibrium), the membranes were harvested by rapid filtration over a 96-well UniFilter GF/B plate, pretreated with 0.3% polyethyleneimine, and washed 6 times with […] (50 mM Tris-HCl, 0.9% NaCl, pH 7.5 at 4° C.). Plates were dried overnight at room temperature, approximately […] of MicroScint™-20 (Perkin Elmer) added and bound radioactivity quantitated via liquid scintillation spectroscopy. Inhibition curves and saturation isotherms were analyzed using GraphPad Prism Software package (GraphPad Software, Inc., San Diego, Calif.). IC50 values were generated from concentration response curves using the Sigmoidal Dose Response (variable slope) algorithm in Prism GraphPad. Kd and Bmax values for the radioligand were generated from saturation isotherms using the Saturation Binding Global Fit algorithm in Prism GraphPad. pKi (negative decadic logarithm of Ki) values for test compounds were calculated from the best-fit IC50 values, and the Kd value of the radioligand, using the Cheng-Prusoff equation (Cheng & Prusoff (1973) Biochem. Pharmacol. 22(23):3099-3108): Ki=IC50/(1+[L]/Kd), where [L]=concentration radioligand.

NET [2] = target: T2, NET (Homo sapiens, UniProt P23975); assay: hNET membrane radioligand binding assay (3H-nisoxetine); details: hNET membranes (HEK-293), 1.0 nM 3H-nisoxetine; read-out: NET pKi (converted)
Protocol: as §1, §2, §3, §4, §5

SERT [3] = target: T1, SERT; assay: hSERT neurotransmitter uptake assay (3H-5-HT); format: cell-based; details: serotonin reuptake inhibition, HEK-293 hSERT cells, 3H-5-HT (no asterisk); read-out: SERT pIC50 (converted)
Protocol: (§6) Neurotransmitter uptake assays were used to measure inhibition of ^3H-serotonin (^3H-5-HT), ^3H-norepinephrine (^3H-NE), and ^3H-dopamine (^3H-DA) uptake into cells expressing the respective transporter (hSERT, hNET or hDAT) in order to determine the pIC50 values of test compounds at the transporters.
(§7) HEK-293 derived cell lines stably-transfected with hSERT, hNET, or hDAT, respectively, were grown in DMEM medium supplemented with 10% dialyzed FBS (for hSERT) or FBS (for hNET and hDAT), 100 μg/ml penicillin, 100 μg/ml streptomycin, 2 mM L-glutamine and 250 μg/ml of the aminoglycoside antibiotic G418 (for hSERT and hNET) or 800 ug/ml (for hDAT), in a 5% CO2 humidified incubator at 37° C. When cultures reached 80% confluence, the cells were washed thoroughly in PBS (without Ca^2+ and Mg^2+) and lifted with 5 mM EDTA in PBS. Cells were harvested by centrifugation at 1100 rpm for 5 minutes, washed once by resuspension in PBS, then centrifuged. The supernatant was discarded and the cell pellet resuspended, by gentle trituration, in room temperature Krebs-Ringer bicarbonate buffer containing HEPES (10 mM), CaCl2 (2.2 mM), ascorbic acid (200 μM) and pargyline (200 μM), pH 7.4. The final concentration of cells in the cell suspension was 7.5×10^4 cells/ml, 1.25×10^5 cells/ml, and 5.0×10^4 cells/ml for SERT, NET, and DAT cell lines, respectively.
(§8) Neurotransmitter uptake assays were performed in a 96-well assay plate in a total volume of 400 μl assay buffer (Krebs-Ringer bicarbonate buffer containing HEPES (10 mM), CaCl2 (2.2 mM), ascorbic acid (200 μM) and pargyline (200 μM), pH 7.4) with 1.5×10^4 and 2.5×10^4 cells, for SERT, NET, and DAT, respectively. […] Stock solutions (10 mM in DMSO) of test compound were prepared and serial dilutions prepared using 50 mM Tris-HCl, 120 mM NaCl, 5 mM KCl, pH 7.4, 0.1% BSA, 400 μM ascorbic acid. Test compounds were incubated for 30 minutes at 37° C. with the respective cells, prior to addition of radiolabeled neurotransmitter, ^3H-5-HT (20 nM final concentration), ^3H-NE (50 nM final concentration) or ^3H-DA (100 nM final concentration). Non-specific neurotransmitter uptake was determined in the presence of 2.5 μM duloxetine, 2.5 μM desipramine, or 10 uM GBR-12909 (each in Dilution Buffer) for the hSERT, hNET, or hDAT assays, respectively.
(§9) Following a 10 minute incubation, at 37° C., with radioligand, the cells were harvested by rapid filtration over a 96-well UniFilter GF/B plate, pretreated with 1% BSA, and washed 6 times with 650 μl wash buffer (ice cold PBS). Plates were dried overnight at 37° C., ˜45 μl of MicroScint™-20 (Perkin Elmer) added and incorporated radioactivity quantitated via liquid scintillation spectroscopy Inhibition curves were analyzed using GraphPad Prism Software package (GraphPad Software, Inc., San Diego, Calif.). IC50 values were generated from concentration response curves using the Sigmoidal Dose Response (variable slope) algorithm in Prism GraphPad.

NET [4] = target: T2, NET; assay: hNET neurotransmitter uptake assay (3H-NE); format: cell-based; details: norepinephrine reuptake inhibition, HEK-293 hNET cells, 3H-NE (no asterisk); read-out: NET pIC50 (converted)
Protocol: as §6, §7, §8, §9

T1 sequence (P31645 whole entry): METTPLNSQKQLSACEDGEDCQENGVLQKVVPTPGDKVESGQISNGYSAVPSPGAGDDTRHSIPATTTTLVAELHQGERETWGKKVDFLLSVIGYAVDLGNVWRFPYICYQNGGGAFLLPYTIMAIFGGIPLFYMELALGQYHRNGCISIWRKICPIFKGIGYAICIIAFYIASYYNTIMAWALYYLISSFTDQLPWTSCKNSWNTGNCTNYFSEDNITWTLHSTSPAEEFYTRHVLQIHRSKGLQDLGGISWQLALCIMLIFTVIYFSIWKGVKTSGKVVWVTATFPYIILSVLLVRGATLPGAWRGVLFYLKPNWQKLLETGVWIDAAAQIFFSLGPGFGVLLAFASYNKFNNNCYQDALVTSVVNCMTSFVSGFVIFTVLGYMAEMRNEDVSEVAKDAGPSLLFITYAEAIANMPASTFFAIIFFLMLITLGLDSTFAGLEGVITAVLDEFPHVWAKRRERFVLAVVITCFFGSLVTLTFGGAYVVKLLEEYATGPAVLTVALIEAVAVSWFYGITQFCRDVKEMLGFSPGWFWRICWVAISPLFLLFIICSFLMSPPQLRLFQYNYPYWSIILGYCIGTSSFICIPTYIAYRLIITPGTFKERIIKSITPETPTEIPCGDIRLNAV
T2 sequence (P23975 whole entry): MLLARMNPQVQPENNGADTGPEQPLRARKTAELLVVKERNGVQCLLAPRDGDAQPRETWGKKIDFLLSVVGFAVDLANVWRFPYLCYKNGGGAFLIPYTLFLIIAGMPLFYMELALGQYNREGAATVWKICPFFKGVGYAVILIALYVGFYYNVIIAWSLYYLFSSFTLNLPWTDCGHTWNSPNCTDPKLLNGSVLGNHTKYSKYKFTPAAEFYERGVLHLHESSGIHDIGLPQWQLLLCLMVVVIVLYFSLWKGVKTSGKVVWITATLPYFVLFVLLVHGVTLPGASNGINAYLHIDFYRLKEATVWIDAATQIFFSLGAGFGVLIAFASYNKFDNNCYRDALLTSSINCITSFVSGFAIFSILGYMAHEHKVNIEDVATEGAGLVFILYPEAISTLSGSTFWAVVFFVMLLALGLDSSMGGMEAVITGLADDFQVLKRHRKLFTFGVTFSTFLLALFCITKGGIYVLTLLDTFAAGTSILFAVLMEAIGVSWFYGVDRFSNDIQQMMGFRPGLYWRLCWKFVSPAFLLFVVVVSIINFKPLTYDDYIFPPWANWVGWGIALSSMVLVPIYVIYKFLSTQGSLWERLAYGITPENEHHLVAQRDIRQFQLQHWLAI

Row | Ki (SERT [1]) [nM] | Ki (NET [2]) [nM] | IC50 (SERT [3]) [nM] | IC50 (NET [4]) [nM] | SERT pKi (SERT [1]) | SMILES
1 | ≤ 100 | ≤ 10 | ≤ 1000 | ≤ 10 | – | Clc1ccccc1O[C@@H](C1CCOCC1)[C@H]1CCNC1 [Example 13-1, (S)-3-[(S)-(2-Chlorophenoxy)(tetrahydropyran-4-yl)methyl]pyrrolidine]
2 | ≤ 10 | ≤ 10 | ≤ 10 | ≤ 10 | – | COC[C@H](Oc1ccc(Cl)cc1C)[C@H]1CCNC1 [Example 4-25, (S)-3-[(R)-1-(4-Chloro-2-methylphenoxy)-2-methoxyethyl]pyrrolidine]
3 | ≤ 10 | ≤ 10 | ≤ 10 | ≤ 10 | – | COC[C@@H](Oc1cccc(Cl)c1Cl)[C@H]1CCNC1 [Example 4-9, (S)-3-[(S)-1-(2,3-Dichlorophenoxy)-2-methoxyethyl]pyrrolidine]
4 | ≤ 10 | ≤ 10 | ≤ 100 | ≤ 10 | – | Fc1cccc(O[C@@H](C2CCOCC2)[C@H]2CCNC2)c1Cl [Example 13-14, (S)-3-[(S)-(2-Chloro-3-fluorophenoxy)(tetrahydropyran-4-yl)methyl]pyrrolidine]
5 | ≤ 10 | ≤ 10 | ≤ 100 | ≤ 10 | – | FC(F)(F)c1c(Cl)cccc1O[C@H](C1CCOCC1)[C@@H]1CCNC1 [Example 13-20, (R)-3-[(R)-(3-Chloro-2-trifluoromethylphenoxy)(tetrahydropyran-4-yl)-methyl]-pyrrolidine]
6 | ≤ 10 | ≤ 10 | ≤ 100 | ≤ 10 | – | COCC(Oc1ccc(Cl)cc1C)C1CCNC1 (centres unmarked) [Example 4-26, 3-[1-(4-Chloro-2-methylphenoxy)-2-methoxyethyl]pyrrolidine]
7 | ≤ 10 | ≤ 10 | ≤ 10 | ≤ 10 | – | Fc1cccc(O[C@@H](C2CCOCC2)[C@@H]2CCNC2)c1Cl [Example 13-17, (R)-3-[(S)-(2-Chloro-3-fluorophenoxy)(tetrahydropyran-4-yl)methyl]pyrrolidine]
8 | ≤ 10 | ≤ 10 | ≤ 100 | ≤ 10 | – | COC[C@@H](Oc1cccc(Cl)c1C)[C@H]1CCNC1 [Example 4-15, (S)-3-[(S)-1-(3-Chloro-2-methylphenoxy)-2-methoxyethyl]pyrrolidine]
9 | – | ≤ 10 | ≤ 10 | ≤ 10 | ≧8.0 | COCCC(Oc1ccc(Cl)cc1C)C1CCNC1 (single isomer, unassigned) [5 (2nd peak)]
10 | ≤ 10 | ≤ 10 | ≤ 10 | ≤ 10 | – | Clc1cccc(O[C@@H](C2CCOCC2)[C@@H]2CCNC2)c1Cl [Example 12, (R)-3-[(S)-(2,3-Dichlorophenoxy)(tetrahydropyran-4-yl)-methyl]pyrrolidine]
11 | ≤ 10 | ≤ 10 | ≤ 10 | ≤ 10 | – | COC[C@H](Oc1cccc(Cl)c1C)[C@H]1CCNC1 [Example 4-16, (S)-3-[(R)-1-(3-Chloro-2-methylphenoxy)-2-methoxyethyl]pyrrolidine]
12 | ≤ 10 | ≤ 10 | ≤ 10 | ≤ 10 | – | Fc1cccc(O[C@H](C2CCOCC2)[C@H]2CCNC2)c1Cl [Example 13-15, (S)-3-[(R)-(2-Chloro-3-fluorophenoxy)(tetrahydropyran-4-yl)methyl]pyrrolidine]
13 | ≤ 10 | ≤ 10 | ≤ 100 | ≤ 10 | – | COC[C@H](Oc1cccc(Cl)c1C(F)(F)F)[C@H]1CCNC1 [Example 4-21, (S)-3-[(R)-1-(3-Chloro-2-trifluoromethylphenoxy)-2-methoxyethyl]pyrrolidine]
14 | ≤ 10 | ≤ 10 | ≤ 10 | ≤ 10 | – | Clc1cc(Cl)cc(O[C@@H](C2CCOCC2)[C@@H]2CCNC2)c1 [Example 13-30, (R)-3-[(S)-(3,5-Dichlorophenoxy)(tetrahydropyran-4-yl)methyl]pyrrolidine]
15 | ≤ 10 | ≤ 10 | ≤ 100 | ≤ 10 | – | COCC(Oc1cccc(Cl)c1Cl)C1CCNC1 (centres unmarked) [Example 4-5, 3-[1-(2,3-Dichlorophenoxy)-2-methoxyethyl]pyrrolidine]
16 | ≤ 10 | ≤ 10 | ≤ 100 | ≤ 10 | – | COCC(Oc1cccc(Cl)c1C(F)(F)F)C1CCNC1 (centres unmarked) [Example 4-18, 3-[1-(3-Chloro-2-trifluoromethylphenoxy)-2-methoxyethyl]pyrrolidine]
17 | ≤ 10 | ≤ 10 | ≤ 10 | ≤ 10 | – | Clc1cccc(Cl)c1O[C@@H](C1CCOCC1)[C@H]1CCNC1 [Example 13-24, (S)-3-[(S)-(2,6-Dichlorophenoxy)(tetrahydropyran-4-yl)methyl]pyrrolidine]
